Assay results: ChEMBL document CHEMBL1142095, “Diminished ciprofloxacin-induced chondrotoxicity by supplementation with magnesium and vitamin E in immature rats” (Antimicrob Agents Chemother, 2007)

Test system: Rattus norvegicus
Assay: Reduction in incidence of 600 mg/kg, sc ciprofloxacin-induced cartilage lesions in vitamin E-enriched diet fed immature Wistar rat after 10 days
Format: functional, organism-based
Set-up: dose 600 mg/kg; scale not given: the % may be the effect or the level left
Conditions: at 600 mg/kg

VITAMIN E
Activity: 41%
